These results are taken from PMC11387447 (Pharmacological Reports, 2024).

Where two headings read alike, the source gives them in different places. Marks after values point to notes of the source that are not given here.

For data set [1] the following is noted: IIIATO group: single oral ATO 20 mg/kg b.w. alone, rat plasma, n = 8; median (quartiles) or mean ± SD (CV %); adopted from previous study ref 12; cited from earlier work.
Details of data set [2]: method as in earlier work. The following applies: mice, repeated oral 10 mg/kg of REG for 5 consecutive days; ref 27 (Zopf et al.); cited from earlier work.
Data set [3] can be described thus: Plasma pharmacokinetics of REG, M-2 and M-5 in rats after single oral REG with or without ATO (UPLC-MS/MS, non-compartmental analysis). It counts as in vivo, male Wistar rats. The conditions noted are these: for increase of AUC0–t / increase of AUC0–∞: IREG+ATO group compared to control IIREG group; for Cmax as share of the REG Cmax: single dose of REG 20 mg/kg; for AUC0–t / AUC0–∞ / Cmax / AUC(0-inf) / AUC(0-t): rat plasma; for AUC0–t / AUC0–∞ / Cmax / Tmax / Vd/F / AUC(0-inf) / AUC(0-t): n = 8. How it is done:
Nonetheless, no other experimental conditions were changed.
Next, 20 μL of acetonitrile was added. The samples were mixed for 10 min and then centrifuged for 10 min at 8500 rpm. 50 μL of the resulting supernatant was filtered and used for further analysis. Each sample was analyzed twice, and the arithmetic mean was determined from the surface areas obtained in the chromatogram.
The LC–MS/MS system consisted of a Xevo TQ-S-micro triple quadrupole mass spectrometer coupled with a UPLC Acquity I-class PLUS (Waters Corporation, Milford, MA, USA), and the Waters Software MassLynx V4.2 SCN1017 Software. A Cortecs UPLC C18 column (2.1 × 50 mm, 1.6 μm) was equipped with an Acquity UPLC BEH C18 VanGuard pre-column (2.1 × 5 mm, 3/Pk, Waters Corporation). The injection volume was 5 μL. The temperature of the autosampler was 4 °C, and the temperature of the column was 40 °C. Mobile phase A was composed of 0.1% aqueous formic acid solution (v/v), and phase B of acetonitrile: methanol and 0.1% formic acid aqueous solution at 1:3 (v/v) ratio. The total run time was 5 min. […] Positive electrospray ionization (ESI) multiple reaction monitoring (MRM) experiments were conducted for sample analysis. The Xevo TQ-S Micro Mass spectrometer (Waters) was run in the positive ion mode, and configured in the multiple reaction monitoring mode, for the detection of REG, REG-N-oxide (M-2), N-desmethyl-REG-N-oxide (M-5), and isotope-labelled REG-d3.
The data were collected and processed using the MassLynx Software (V 4.2 SCN 1017, Waters). The following settings were used for the Xevo TQ-S Micro Mass spectrometer: source temperature—150 °C, desolvation temperature—600 °C, nitrogen gas flow—900 L/h, capillary voltage 3.6 kV. Transition ion pairs (parent m/z—daughter m/z) were identified, using the MRM mode, for the following compounds: 482.95–270.08 and 288.02 for REG; 499.00–304.01, 252.16, and 229.00 for M-2; 485.94–202.02 and 228.98 for M-5; and 486.02–273.07 for REG-d3 as an IS.

The mark [4] stands for this setting: IIREG group: REG 20 mg/kg b.w. alone, median (quartiles).
The mark [5] stands for this setting: IREG+ATO group: REG 20 mg/kg + ATO 20 mg/kg b.w., median (quartiles).
[6] abbreviates: metabolite of REG, IIREG group: single oral REG 20 mg/kg b.w. alone, median (quartiles).
[7] abbreviates: metabolite of REG, IREG+ATO group: single oral REG 20 mg/kg + ATO 20 mg/kg b.w., median (quartiles).
[8] abbreviates: in the presence of ATO (IREG+ATO vs IIREG).
Setting [9] is: male, Wistar, rat, plasma, po, 20 mg/kg, IIREG group: single oral REG 20 mg/kg b.w. alone, median (quartiles).
[10] abbreviates: male, Wistar, rat, plasma, po, 20 mg/kg, IREG+ATO group: single oral REG 20 mg/kg + ATO 20 mg/kg b.w., median (quartiles).

For the molecule `CC(C)c1c(C(=O)Nc2ccccc2O)c(-c2ccccc2)c(-c2ccc(F)cc2)n1CC[C@@H](O)C[C@@H](O)CC(=O)O` [2-OH ATO, orthohydroxy atorvastatin], in data set [1], the “AUC0–t” value is given as 544.83 (448.90; 682.46) ng × h/mL and the Cmax is given as 126.09 (87.49; 276.16) ng/mL.

In the case of `CC(C)c1c(C(=O)Nc2ccc(O)cc2)c(-c2ccccc2)c(-c2ccc(F)cc2)n1CC[C@@H](O)C[C@@H](O)CC(=O)O` [4-OH ATO, parahydroxy atorvastatin], the “AUC0–∞” value in data set [1] is 18.32 (12.89; 24.73) ng × h/mL.

On to `CNC(=O)c1cc(Oc2ccc(NC(=O)Nc3ccc(Cl)c(C(F)(F)F)c3)c(F)c2)cc[n+]1[O-]` [M-2, regorafenib N-oxide], for which, in data set [2], the “Cmax as share of the REG Cmax” value is 15.17%. In data set [3] (setting [4]), the “M-2/REG ratio AUC0–t” value is given as 0.26 (0.20; 0.31), the “M-2/REG ratio AUC0–∞” value is recorded as 0.30 (0.26; 0.38) and the “M-2/REG ratio Cmax” value is given as 0.18 (0.13; 0.28). In data set [3], the “increase of AUC0–t” value is on record as 4.5 fold and the “increase of AUC0–∞” value is on record as 3.6 fold. The “Cmax as share of the REG Cmax” value in data set [3] (IREG+ATO group) amounted to 24.14%. Besides, in data set [3] (setting [5]), the “M-2/REG ratio AUC0–t” value was 0.31 (0.27; 0.45) and the “M-2/REG ratio Cmax” value is reported as 0.27 (0.20; 0.33). Moreover, in data set [3] (IREG+ATO vs IIREG), the “Gmean ratio (90% CI) of AUC0–t” value is 5.47 (4.30; 6.96)*, the “Gmean ratio (90% CI) of AUC0–∞” value is 4.55 (3.70; 5.60)*, the “Gmean ratio (90% CI) of Cmax” value is given as 5.03 (3.82; 6.62)* and the “Gmean ratio (90% CI) of M-2/REG ratio AUC0–t” value was 1.30 (0.96; 1.76)*. Moreover, in data set [3] (IREG+ATO vs IIREG), the “Gmean ratio (90% CI) of M-2/REG ratio AUC0–∞” value is recorded as 1.08 (0.81; 1.46)* and the “Gmean ratio (90% CI) of M-2/REG ratio Cmax” value is on record as 1.35 (0.60; 3.07)*. In data set [3] (REG group), the “Cmax as share of the REG Cmax” value turned out to be 15.28%. For the same molecule, in data set [3] (setting [6]), the “AUC0–t” value was 9548.40 (8488.70; 11,642.31) ng × h/mL, the “AUC0–∞” value is 10,947.48 (9718.99; 12,781.14) ng × h/mL and the Cmax is given as 302.15 (249.90; 395.95) ng/mL. Also, in data set [3] (setting [7]), the “AUC0–t” value is given as 52,182.11 (40,840.43; 64,989.90) ng × h/mL, the “AUC0–∞” value was 52,438.36 (41,030.58; 65,561.89) ng × h/mL and the Cmax is reported as 1647.45 (1374.65; 1994.65) ng/mL.

Regarding `NC(=O)c1cc(Oc2ccc(NC(=O)Nc3ccc(Cl)c(C(F)(F)F)c3)c(F)c2)cc[n+]1[O-]` [M-5, N-desmethyl regorafenib N-oxide], in data set [2], the “Cmax as share of the REG Cmax” value is 1.27%. The “M-5/REG ratio Cmax” value in data set [3] (setting [4]) is 0.01 (0.01; 0.02). Besides, in data set [3], the “increase of AUC0–t” value stood at 6.0 fold and the “increase of AUC0–∞” value came out at 6.0 fold. In addition, the “Cmax as share of the REG Cmax” value in data set [3] (IREG+ATO group) was found to be 2.12%. Moreover, in data set [3] (setting [5]), the “M-5/REG ratio Cmax” value was 0.02 (0.02; 0.02). Moreover, in data set [3] (IREG+ATO vs IIREG), the “Gmean ratio (90% CI) of AUC0–t” value is 7.13 (6.13; 8.29)*, the “Gmean ratio (90% CI) of AUC0–∞” value is reported as 7.16 (6.21; 8.26)*, the “Gmean ratio (90% CI) of Cmax” value was 5.65 (5.06; 6.31)* and the “Gmean ratio (90% CI) of M-5/REG ratio AUC0–t” value was 1.70 (1.42; 2.03). Further, in data set [3] (IREG+ATO vs IIREG), the “Gmean ratio (90% CI) of M-5/REG ratio AUC0–∞” value was 1.71 (1.43; 2.03) and the “Gmean ratio (90% CI) of M-5/REG ratio Cmax” value was 1.52 (0.68; 3.39)*. Besides, the “Cmax as share of the REG Cmax” value in data set [3] (REG group) came to 1.17%. In data set [3] (in the presence of ATO), the “increase of M-5/REG ratio for AUC0–t” value came out at 100.0%, the “increase of M-5/REG ratio for AUC0–∞” value is given as 100.0% and the “increase of M-5/REG ratio for Cmax” value was 66.7%. For the same molecule, in data set [3] (setting [6]), the “AUC0–t” value is 791.48 (703.15; 884.23) ng × h/mL, the “AUC0–∞” value is recorded as 833.10 (752.92; 929.13) ng × h/mL and the Cmax is 26.90 (23.40; 28.65) ng/mL. In data set [3] (setting [7]), the “AUC0–t” value is 5501.55 (5310.04; 5967.36) ng × h/mL, the “AUC0–∞” value was 5919.80 (5556.63; 6371.62) ng × h/mL and the Cmax is given as 150.05 (136.75; 155.40) ng/mL.

Take `CNC(=O)c1cc(Oc2ccc(NC(=O)Nc3ccc(Cl)c(C(F)(F)F)c3)c(F)c2)ccn1` [REG, regorafenib, reference compound]: in data set [3], the “increase of AUC0–t” value was determined as 3.2 fold and the “increase of AUC0–∞” value is 3.2 fold. Further, in data set [3] (IREG+ATO vs IIREG), the “Gmean ratio (90% CI) of AUC0–t” value is 4.20 (3.57; 4.95)*, the “Gmean ratio (90% CI) of AUC0–∞” value was 4.20 (3.56; 4.94)*, the “Gmean ratio (90% CI) of Cl/F” value is 0.26 (0.22; 0.30)* and the “Gmean ratio (90% CI) of Cmax” value is 3.72 (3.20; 4.32)*. In data set [3] (IREG+ATO vs IIREG), the “Gmean ratio (90% CI) of Vd/F” value is on record as 0.28 (0.22; 0.37)*, the “Gmean ratio (90% CI) of ka” value is given as 1.60 (1.09; 2.37), the “Gmean ratio (90% CI) of kel” value is reported as 0.91 (0.75; 1.10) and the “Gmean ratio (90% CI) of t1/2” value is listed as 1.10 (0.91; 1.33). Besides, in data set [3] (IREG+ATO vs IIREG), the “Gmean ratio (90% CI) of tmax” value is 0.85 (0.63; 1.17)* and the “differences in tmax, ka, kel, t0.5” value is “No statistically significant differences”. In data set [3] (setting [8]), the “decrease of Cl/F” value was determined as 72.7% and the “decrease of Vd/F” value stood at 71.7%. In data set [3] (setting [9]), the Tmax was 6 h, the Vd/F stood at 1.98 L, the AUC(0-inf) amounted to 36 µg·h/mL and the AUC(0-t) turned out to be 35.8 µg·h/mL. Besides, the Cmax in data set [3] (male, Wistar, rat, plasma, po, 20 mg/kg, IIREG group: single oral REG 20 mg/kg b.w. alone, median (quartiles), read-out: Cmax) is 1.88 µg/mL. Further, in data set [3] (setting [10]), the Tmax was 5 h, the Vd/F is 0.51 L, the AUC(0-inf) amounted to 163 µg·h/mL and the AUC(0-t) is 163 µg·h/mL. In addition, the Cmax in data set [3] (male, Wistar, rat, plasma, po, 20 mg/kg, IREG+ATO group: single oral REG 20 mg/kg + ATO 20 mg/kg b.w., median (quartiles), read-out: Cmax) worked out at 7.29 µg/mL.
